One assay deals with human αvβ3 integrin (Homo sapiens, UniProt P05106+P06756). Put plainly: ELISA-like solid-phase integrin binding assay.
For a further assay, the target named is human α5β1 integrin (Homo sapiens, UniProt P05556+P08648). Put plainly: ELISA-like solid-phase integrin binding assay. (ELISA stands for enzyme-linked immunosorbent assay.)
Chain of human α5β1 integrin (P08648 42-995 limits assumed): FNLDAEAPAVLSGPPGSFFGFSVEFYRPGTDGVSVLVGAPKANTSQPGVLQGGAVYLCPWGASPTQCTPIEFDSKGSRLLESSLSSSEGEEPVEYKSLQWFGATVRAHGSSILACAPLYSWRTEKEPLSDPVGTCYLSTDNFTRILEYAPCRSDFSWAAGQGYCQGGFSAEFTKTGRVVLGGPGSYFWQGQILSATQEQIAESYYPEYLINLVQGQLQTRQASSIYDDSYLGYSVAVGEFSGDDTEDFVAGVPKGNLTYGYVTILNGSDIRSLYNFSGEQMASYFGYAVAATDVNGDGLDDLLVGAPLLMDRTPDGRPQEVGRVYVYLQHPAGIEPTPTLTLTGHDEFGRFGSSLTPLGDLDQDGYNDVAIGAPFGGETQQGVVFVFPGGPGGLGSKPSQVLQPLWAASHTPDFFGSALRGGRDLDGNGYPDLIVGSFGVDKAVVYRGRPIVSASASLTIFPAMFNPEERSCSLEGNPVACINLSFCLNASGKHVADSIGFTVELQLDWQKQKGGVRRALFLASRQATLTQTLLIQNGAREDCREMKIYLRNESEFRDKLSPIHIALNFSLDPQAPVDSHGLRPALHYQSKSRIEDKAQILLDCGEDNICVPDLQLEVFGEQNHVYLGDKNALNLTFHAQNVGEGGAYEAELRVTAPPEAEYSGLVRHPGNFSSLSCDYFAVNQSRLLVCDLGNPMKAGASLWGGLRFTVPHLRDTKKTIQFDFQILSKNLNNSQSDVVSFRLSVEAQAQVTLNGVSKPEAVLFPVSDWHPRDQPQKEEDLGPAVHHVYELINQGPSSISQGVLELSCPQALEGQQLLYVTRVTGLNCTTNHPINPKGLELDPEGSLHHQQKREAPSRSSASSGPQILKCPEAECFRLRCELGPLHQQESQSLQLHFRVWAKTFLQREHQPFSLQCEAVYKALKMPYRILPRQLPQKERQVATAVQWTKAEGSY
Chain of human α5β1 integrin (P05556 21-728 limits assumed): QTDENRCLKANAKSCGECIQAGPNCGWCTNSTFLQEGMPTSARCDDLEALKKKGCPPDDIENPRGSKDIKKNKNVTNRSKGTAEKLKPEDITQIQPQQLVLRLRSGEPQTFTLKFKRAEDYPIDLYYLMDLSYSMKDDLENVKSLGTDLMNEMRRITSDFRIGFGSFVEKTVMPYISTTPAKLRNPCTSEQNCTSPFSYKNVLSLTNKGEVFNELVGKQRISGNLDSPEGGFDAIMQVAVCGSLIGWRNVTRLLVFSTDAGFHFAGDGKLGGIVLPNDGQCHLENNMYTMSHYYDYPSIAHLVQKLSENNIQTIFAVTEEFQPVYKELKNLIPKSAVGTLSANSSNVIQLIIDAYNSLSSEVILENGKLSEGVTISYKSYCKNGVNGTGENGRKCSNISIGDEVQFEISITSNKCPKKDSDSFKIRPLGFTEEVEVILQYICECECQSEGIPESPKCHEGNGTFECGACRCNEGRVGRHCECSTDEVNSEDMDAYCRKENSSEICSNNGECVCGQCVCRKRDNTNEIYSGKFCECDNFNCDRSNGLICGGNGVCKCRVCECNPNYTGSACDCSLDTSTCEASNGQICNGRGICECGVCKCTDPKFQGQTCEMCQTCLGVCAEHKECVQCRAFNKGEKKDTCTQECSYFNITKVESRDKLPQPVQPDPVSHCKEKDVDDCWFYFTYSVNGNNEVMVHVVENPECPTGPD

Chain of human αvβ3 integrin (P06756 31-992 limits assumed): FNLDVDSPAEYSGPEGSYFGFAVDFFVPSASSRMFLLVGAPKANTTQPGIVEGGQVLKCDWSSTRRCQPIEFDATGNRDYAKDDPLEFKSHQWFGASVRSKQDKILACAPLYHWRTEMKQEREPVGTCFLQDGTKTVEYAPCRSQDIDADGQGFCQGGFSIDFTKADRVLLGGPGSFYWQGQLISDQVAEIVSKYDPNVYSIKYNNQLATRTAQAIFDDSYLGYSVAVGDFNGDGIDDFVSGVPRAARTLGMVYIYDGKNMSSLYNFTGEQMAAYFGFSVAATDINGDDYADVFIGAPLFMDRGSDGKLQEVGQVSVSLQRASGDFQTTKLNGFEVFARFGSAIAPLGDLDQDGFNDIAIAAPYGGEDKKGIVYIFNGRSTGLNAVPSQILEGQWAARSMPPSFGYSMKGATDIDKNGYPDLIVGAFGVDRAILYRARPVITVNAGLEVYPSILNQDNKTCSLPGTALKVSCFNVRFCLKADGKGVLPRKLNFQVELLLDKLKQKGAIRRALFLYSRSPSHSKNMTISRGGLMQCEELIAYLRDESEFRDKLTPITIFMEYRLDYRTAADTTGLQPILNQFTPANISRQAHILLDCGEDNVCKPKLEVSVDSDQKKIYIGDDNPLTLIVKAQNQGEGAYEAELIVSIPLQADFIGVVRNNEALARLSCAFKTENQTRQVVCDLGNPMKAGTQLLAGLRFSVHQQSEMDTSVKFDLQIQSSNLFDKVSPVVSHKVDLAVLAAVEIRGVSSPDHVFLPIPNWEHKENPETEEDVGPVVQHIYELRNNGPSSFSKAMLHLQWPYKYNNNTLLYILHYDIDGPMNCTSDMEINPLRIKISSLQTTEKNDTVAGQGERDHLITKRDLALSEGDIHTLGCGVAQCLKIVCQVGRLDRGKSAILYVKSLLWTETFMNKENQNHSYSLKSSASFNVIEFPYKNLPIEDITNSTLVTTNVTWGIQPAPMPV
Chain of human αvβ3 integrin (P05106 27-718 limits assumed): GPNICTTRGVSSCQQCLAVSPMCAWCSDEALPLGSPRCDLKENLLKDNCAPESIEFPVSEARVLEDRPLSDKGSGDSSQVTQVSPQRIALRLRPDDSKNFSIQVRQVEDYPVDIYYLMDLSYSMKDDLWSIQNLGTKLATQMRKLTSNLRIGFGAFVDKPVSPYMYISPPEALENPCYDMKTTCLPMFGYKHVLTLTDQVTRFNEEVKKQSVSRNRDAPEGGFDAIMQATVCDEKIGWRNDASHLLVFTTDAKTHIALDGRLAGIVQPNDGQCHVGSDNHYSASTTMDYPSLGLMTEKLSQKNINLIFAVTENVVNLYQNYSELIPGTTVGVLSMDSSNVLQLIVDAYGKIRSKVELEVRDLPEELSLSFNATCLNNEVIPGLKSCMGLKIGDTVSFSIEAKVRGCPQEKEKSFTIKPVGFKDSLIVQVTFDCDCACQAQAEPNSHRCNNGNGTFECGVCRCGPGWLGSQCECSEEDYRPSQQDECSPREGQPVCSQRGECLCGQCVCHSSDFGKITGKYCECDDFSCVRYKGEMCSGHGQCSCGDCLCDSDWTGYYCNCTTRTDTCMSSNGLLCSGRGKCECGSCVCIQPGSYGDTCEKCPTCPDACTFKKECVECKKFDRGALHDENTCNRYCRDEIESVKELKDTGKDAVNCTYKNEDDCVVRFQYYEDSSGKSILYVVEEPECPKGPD

Consider `N=C(N)NCCC[C@@H]1NC(=O)CCCCCN2c3ccccc3Sc3cc(ccc32)-c2cccc3c(c[nH]c23)C[C@H](C(N)=O)NC(=O)[C@H](CC(=O)O)NC(=O)CNC1=O` [12 b, c(RGDw(7‐3Ptz^2))], for which the IC50 on human αvβ3 integrin was 600 ± 110 nM; on human α5β1 integrin, 5680 ± 1280 nM.
The like results for `CN1C(=O)[C@H](CC(=O)O)NC(=O)CNC(=O)[C@H](CCCNC(=N)N)NC(=O)CN2c3ccccc3Sc3cc(ccc32)-c2cccc3c(c[nH]c23)C[C@H]1C(N)=O` [12 f, c(RGD(NMe)W(7‐3Ptz^1))] were, in that order, 4520 ± 530 nM and > 10000 nM.
As to `N#CC(C#N)=Cc1ccc2c(c1)Sc1cc3ccc1N2CCCCCC(=O)N[C@@H](CCCNC(=N)N)C(=O)NCC(=O)N[C@@H](CC(=O)O)C(=O)N[C@@H](C(N)=O)Cc1c[nH]c2c-3cccc12` [12 g, c(RGDw(7‐3Ptz^2(CH(CN)2))], the IC50 was 961 ± 50 nM on human αvβ3 integrin and > 10000 nM at human α5β1 integrin.
The like results for `N=C(N)NCCC[C@@H]1NC(=O)CN2c3ccccc3Sc3cc(ccc32)-c2cccc3c(c[nH]c23)C[C@@H](C(N)=O)NC(=O)[C@H](CC(=O)O)NC(=O)CNC1=O` [12 c, c(RGDW(7‐3Ptz^1))] were, in that order, 310 ± 80 nM and 2220 ± 1040 nM.
Compound `CN1C(=O)[C@H](CC(=O)O)NC(=O)CNC(=O)[C@H](CCCNC(=N)N)NC(=O)CCCCCN2c3ccccc3Sc3cc(ccc32)-c2cccc3c(c[nH]c23)C[C@H]1C(N)=O` [12 e, c(RGD(NMe)W(7‐3Ptz^2))] displayed an IC50 at human αvβ3 integrin of 6550 ± 760 nM. In addition, the “decrease in the affinities compared to their unmethylated analogues” value at human αvβ3 integrin (N-methyl tryptophan derivatives vs 12 a–c) was 15–20 fold.
Regarding c(RGDW(7‐3Ptz^1(O))) [12 h], the “selectivity towards the integrin αVβ3 (over α5β1)” value at human αvβ3 integrin (ratio of IC50 α5β1 / αVβ3) was “≈ 110 fold”.
At human αvβ3 integrin, `N=C(N)NCCC[C@@H]1NC(=O)CCCCCN2c3ccccc3Sc3cc(ccc32)-c2cccc3c(c[nH]c23)C[C@@H](C(N)=O)NC(=O)[C@H](CC(=O)O)NC(=O)CNC1=O` [12 a, c(RGDW(7‐3Ptz^2))] had an IC50 of 330 ± 40 nM.
On to `N=C(N)NCCC[C@@H]1NC(=O)CN2c3ccccc3Sc3cc(ccc32)-c2cccc3c(c[nH]c23)C[C@H](C(N)=O)NC(=O)[C@H](CC(=O)O)NC(=O)CNC1=O` [12 d, c(RGDw(7‐3Ptz^1))], for which the IC50 is 780 ± 170 nM on human αvβ3 integrin and > 10000 nM at human α5β1 integrin.

As a reminder, the IC50 is the point on the concentration scale where inhibition reaches its midpoint. A higher IC50 goes with weaker potency in that assay.
